Data on 18 compounds can be found in patent US8084645B2, “4-phenylamino-benzaldoxime derivatives and uses thereof as mitogen-activated protein kinase kinase (MEK) inhibitors” (Chugai Seiyaku Kabushiki Kaisha, priority 2003, dated 2011).

In brackets after ≈: the same amount, converted by molar mass.

Data set [1] can be described thus: Determination of stability against human liver microsomes. It is filed as in vitro ADME. As to conditions: human liver microsomes 1 mg protein/mL, 2 mM NADPH, pH 7.4, 37 C; read-out: Stability against human liver microsome NADPH+ T1/2. The protocol: The enzyme reaction was quenched with three volumes of acetonitrile, and the reaction mixture was centrifuged at 1,500 rpm for ten minutes to provide a supernatant as a sample to be measured. Stability against human liver microsomes was measured using HPLC/MS to determine the compounds in the sample.

Data set [2] is described as follows: Determination of stability against mouse liver microsomes. The class given is in vitro ADME. The following applies: mouse liver microsomes 1 mg protein/mL, 2 mM NADPH, pH 7.4, 37 C; read-out: Stability against mouse liver microsome NADPH+ T1/2. The protocol: The enzyme reaction was quenched with three volumes of acetonitrile, and the reaction mixture was centrifuged at 1,500 rpm for ten minutes to provide a supernatant as a sample to be measured. Stability against mouse liver microsomes was measured using HPLC/MS to determine the compounds in the sample.

The subject of data set [3] is Human colon cancer cell line HT-29. The data set is described as follows: Determination of the activity of inhibiting cell proliferation (Cell Counting Kit-8). The class given is cell-based. The following applies: HT-29, 96 h, HT29, 2,000 cells/well, incubated four days, read-out: Cell proliferation inhibitory activity (HT29) IC50. As for the experimental part:
Human colon cancer cell line HT-29, obtained from American Type Culture Collection (VA, USA), and human non-small cell lung cancer cell line QG56, obtained from Immuno-Biological Laboratories Co., Ltd., were plated at 2,000 cells/well in a 96-well culture plate, and incubated for four days after addition of a MEK inhibitor of a given concentration.

The conditions of data set [4]: phase I clinical trials; cited from earlier work.
A short description of data set [5]: Determination of water solubility (equilibrium stirring method). The following applies: 50 mM phosphate buffer pH 6.5, room temperature (20 C); for solubility at 2 h: aqueous buffer, thermodynamic from solid, read-out: Water solubility (LySA PH 6.5). The class given is physicochemical. The protocol:
The vessels were sealed, and the contents were sonicated at room temperature (20° C.) for ten minutes, and then stirred with a stirrer for two hours. After reaching solution equilibrium, the solution was separated with a membrane filter, and the solute concentration was determined using HPLC.

In another data set the target is MEK (Homo sapiens, UniProt Q02750). The data set is described as follows: Determination of MEK inhibitory activities (Raf-1 kinase cascade assay, MBP phosphorylation, 33P-ATP).
Chain of MEK (Q02750 whole entry): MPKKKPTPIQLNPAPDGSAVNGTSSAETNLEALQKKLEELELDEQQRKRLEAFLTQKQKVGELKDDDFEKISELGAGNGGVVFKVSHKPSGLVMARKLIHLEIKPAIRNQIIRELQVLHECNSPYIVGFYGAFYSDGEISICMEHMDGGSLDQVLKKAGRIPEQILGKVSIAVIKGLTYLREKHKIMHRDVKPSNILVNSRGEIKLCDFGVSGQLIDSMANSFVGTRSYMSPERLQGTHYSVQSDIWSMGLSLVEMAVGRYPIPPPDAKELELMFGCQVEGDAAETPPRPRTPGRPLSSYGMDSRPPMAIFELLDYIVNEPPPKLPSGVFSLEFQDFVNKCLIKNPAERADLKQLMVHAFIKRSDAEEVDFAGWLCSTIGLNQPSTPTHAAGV

Source text for MEK: The radioisotope used was [γ^33P]-ATP (Amersham Biosciences, K.K.).

Take `O=C(NOCC1CC1)c1ccc(F)c(F)c1Nc1ccc(I)cc1Cl` [CI-1040, reference compound]: the results for the half-life in data set [1] and in data set [2] were 0.482 h and 0.18 h, respectively. Moreover, the IC50 in data set [3] stood at 0.1 µM. Also, the “differences in pharmacokinetic parameters between patients” value in data set [4] is given as “large differences”. Moreover, in data set [4], the in vivo inactivation entry was “quick in vivo inactivation by hydrolysis”.

Turning to `CC(=O)NCCO/N=C/c1cc(C(=O)NOCCO)c(Nc2ccc(I)cc2F)c(F)c1F` [Compound 24, (E)-5-[(2-acetylamino-ethoxyimino)-methyl]-3,4-difluoro-2-(2-fluoro-4-iodo-phenylamino)-N-(2-hydroxy-ethoxy)-benzamide], the half-life in data set [1] and in data set [2] was above 6 h throughout. The “Water solubility (LySA PH 6.5)” value in data set [5] came to 16 µM. Also, the IC50 stood at 0.048 µM on MEK and 0.086 µM in data set [3].

Regarding `CC(=O)N(C)CCO/N=C/c1cc(C(=O)NOCCO)c(Nc2ccc(I)cc2F)c(F)c1F` [Compound 25, (E)-5-{[2-(acetyl-methyl-amino)-ethoxyimino]-methyl}-3,4-difluoro-2-(2-fluoro-4-iodo-phenylamino)-N-(2-hydroxyethoxy)-benzamide], the results for the half-life in data set [1] and in data set [2] were 0.813 h and 3.3 h, respectively. For the same compound, the solubility at 2 h in data set [5] was 54 µM (≈ 32.1 µg/mL). The IC50 against MEK was found to be 0.03 µM; in data set [3] it was 0.044 µM.

With `O=C(NOCCO)c1cc(/C=N/OCCN2CCNC2=O)c(F)c(F)c1Nc1ccc(I)cc1F` [Compound 27, (E)-3,4-difluoro-2-(2-fluoro-4-iodo-phenylamino)-N-(2-hydroxy-ethoxy)-5-{[2-(2-oxo-imidazolidin-1-yl)-ethoxyimino]-methyl}-benzamide], the figures for the half-life in data set [1] and in data set [2] were 2.41 h and above 6 h, respectively. Further, in data set [5], the solubility at 2 h amounted to 10 µM (≈ 6.07 µg/mL). Moreover, the values for the IC50 (at MEK; in data set [3]) were 0.203 µM and 0.069 µM, respectively.

On to `O=C(NOCCO)c1cc(/C=N/OCc2ncc[nH]2)c(F)c(F)c1Nc1ccc(I)cc1F` [Compound 28, (E)-3,4-difluoro-2-(2-fluoro-4-iodo-phenylamino)-N-(2-hydroxy-ethoxy)-5-[(1H-imidazol-2-ylmethoxyimino)-methyl]-benzamide], for which the half-life in data set [1] and in data set [2] was above 6 h in each case. In data set [5], the solubility at 2 h was below 31.3 µM. Also, the IC50 against MEK worked out at 0.02 µM; in data set [3], 0.05 µM.

As for `C#Cc1ccc(Nc2c(C(=O)NOCCO)cc(/C=N/OCCC(=O)NC)c(F)c2F)c(F)c1` [Compound 41, (E)-2-(4-ethynyl-2-fluoro-phenylamino)-3,4-difluoro-N-(2-hydroxy-ethoxy)-5-[(2-methylcarbamoyl-ethoxyimino)-methyl]-benzamide], the half-life in data set [1] is above 6 h; in data set [2] it was 3.54 h. Further, in data set [5], the solubility at 2 h stood at 347 µM (≈ 166 µg/mL). The IC50 against MEK stood at 0.0647 µM; in data set [3], 0.186 µM.

With `CN(C)C(=O)CCO/N=C/c1cc(C(=O)NOCCO)c(Nc2ccc(I)cc2F)c(F)c1F` [Compound 42, (E)-3,4-difluoro-2-(2-fluoro-4-iodo-phenylamino)-N-(2-hydroxy-ethoxy)-5-[dimethylcarbamoylethoxyimino-methyl]-benzamide], the results for the half-life in data set [1] and in data set [2] were 1.74 h and above 6 h, respectively. Further, the solubility at 2 h in data set [5] turned out to be 29 µM (≈ 17.2 µg/mL). For the same compound, the values for the IC50 (on MEK; in data set [3]) were 0.056 µM and 0.091 µM, respectively.

For `CNC(=O)CO/N=C/c1cc(C(=O)NOCCO)c(Nc2ccc(I)cc2F)c(F)c1F` [Compound 43, (E)-3,4-difluoro-2-(2-fluoro-4-iodo-phenylamino)-N-(2-hydroxy-ethoxy)-5-[methylcarbamoylmethoxyimino-methyl]-benzamide], the half-life in data set [1] and in data set [2] was above 6 h in each case. For the same compound, the solubility at 2 h in data set [5] was found to be 57 µM (≈ 32.3 µg/mL). For the same compound, the IC50 at MEK was 0.119 µM; in data set [3], 0.077 µM.

Consider `CNC(=O)CCCO/N=C/c1cc(C(=O)NOCCO)c(Nc2ccc(I)cc2F)c(F)c1F` [Compound 44], for which the half-life in data set [1] and in data set [2] was above 6 h throughout. The solubility at 2 h in data set [5] was determined as 6 µM (≈ 3.57 µg/mL). Further, the results for the IC50 (on MEK; in data set [3]) were 0.025 µM and 0.328 µM, respectively.

With `O=C(CO/N=C/c1cc(C(=O)NOCCO)c(Nc2ccc(I)cc2F)c(F)c1F)NCCO` [Compound 45, (E)-3,4-difluoro-2-(2-fluoro-4-iodo-phenylamino)-N-(2-hydroxy-ethoxy)-5-{[(2-hydroxyethylcarbamoyl)-methoxyimino]-methyl}-benzamide], the values for the half-life in data set [1] and in data set [2] were above 6 h and 2.15 h, respectively. Besides, the solubility at 2 h in data set [5] was 73 µM (≈ 43.5 µg/mL). The IC50 is 0.267 µM against MEK and 0.196 µM in data set [3].

In the case of `CS(=O)(=O)NCCO/N=C/c1cc(C(=O)NOCCO)c(Nc2ccc(I)cc2F)c(F)c1F` [Compound 47, (E)-3,4-difluoro-2-(2-fluoro-4-iodo-phenylamino)-N-(2-hydroxy-ethoxy)-5-[(2-methanesulfonylamino-ethoxyimino)-methyl]-benzamide], the half-life in data set [1] and in data set [2] was above 6 h throughout. Further, the solubility at 2 h in data set [5] was found to be 11 µM (≈ 6.78 µg/mL). In addition, the figures for the IC50 (at MEK; in data set [3]) were 0.209 µM and 0.138 µM, respectively.

Turning to `C#Cc1ccc(Nc2c(C(=O)NOCCO)cc(/C=N\OCCO)c(F)c2F)c(F)c1` [Compound 48, (Z)-2-(4-ethynyl-2-fluoro-phenylamino)-3,4-difluoro-N-(2-hydroxy-ethoxy)-5-[(2-hydroxy-ethoxyimino)-methyl]-benzamide], the half-life in data set [1] was 0.603 h; in data set [2] it was 2.03 h. For the same compound, the solubility at 2 h in data set [5] worked out at 301 µM (≈ 132 µg/mL). The IC50 against MEK was 0.051 µM; in data set [3], 0.013 µM.

Consider `O=C(NOCCO)c1cc(/C=N\OCCO)c(F)c(F)c1Nc1ccc(I)cc1F` [Compound 49, (Z)-3,4-difluoro-2-(2-fluoro-4-iodo-phenylamino)-N-(2-hydroxy-ethoxy)-5-[(2-hydroxy-ethoxyimino)-methyl]-benzamide], for which the half-life in data set [1] and in data set [2] was above 6 h throughout. In addition, the “Water solubility (LySA PH 6.5)” value in data set [5] came to 75 µM. In addition, the values for the IC50 (on MEK; in data set [3]) were 0.031 µM and 0.0048 µM, respectively.

For the compound `O=C(NOCCO)c1cc(/C=N\OCC(O)CO)c(F)c(F)c1Nc1ccc(I)cc1F` (stereo not drawn) [Compound 52, (dl)-(Z)-5-[(2,3-Dihydroxy-propoxyimino)-methyl]-3,4-difluoro-2-(2-fluoro-4-iodo-phenylamino)-N-(2-hydroxy-ethoxy)-benzamide], the half-life in data set [1] and in data set [2] was above 6 h throughout. The solubility at 2 h in data set [5] is 175 µM (≈ 99.6 µg/mL). Also, the figures for the IC50 (against MEK; in data set [3]) were 0.015 µM and 0.0058 µM, respectively.

On to `CC(=O)NCCO/N=C\c1cc(C(=O)NOCCO)c(Nc2ccc(I)cc2F)c(F)c1F` [Compound 54, (Z)-5-[(2-Acetylamino-ethoxyimino)-methyl]-3,4-difluoro-2-(2-fluoro-4-iodo-phenylamino)-N-(2-hydroxy-ethoxy)-benzamide], for which the half-life in data set [1] and in data set [2] was above 6 h throughout. Moreover, the solubility at 2 h in data set [5] was 20 µM (≈ 11.6 µg/mL). Also, the IC50 is 0.021 µM against MEK and 0.0065 µM in data set [3].

For `CNC(=O)CCCO/N=C\c1cc(C(=O)NOCCO)c(Nc2ccc(I)cc2F)c(F)c1F` [Compound 55], the half-life in data set [1] is 1.62 h; in data set [2], above 6 h. Besides, the solubility at 2 h in data set [5] was 12 µM (≈ 7.13 µg/mL). Besides, the IC50 on MEK amounted to 0.037 µM; in data set [3], 0.0046 µM.

With `CNC(=O)CO/N=C\c1cc(C(=O)NOCCO)c(Nc2ccc(I)cc2F)c(F)c1F` [Compound 56, (Z)-3,4-Difluoro-2-(2-fluoro-4-iodo-phenylamino)-N-(2-hydroxy-ethoxy)-5-(methylcarbamoylmethoxyimino-methyl)-benzamide], the half-life in data set [1] is above 6 h; in data set [2], 0.645 h. Also, the solubility at 2 h in data set [5] came out at 85 µM (≈ 48.1 µg/mL). In addition, the results for the IC50 (on MEK; in data set [3]) were 0.049 µM and 0.0034 µM, respectively.

As to `O=C(CO/N=C\c1cc(C(=O)NOCCO)c(Nc2ccc(I)cc2F)c(F)c1F)NCCO` [Compound 57, (Z)-3,4-Difluoro-2-(2-fluoro-4-iodo-phenylamino)-N-(2-hydroxy-ethoxy)-5-{[(2-hydroxyethylcarbamoyl)-methoxyimino]-methyl}-benzamide], the half-life in data set [1] and in data set [2] was above 6 h in each case. Also, the solubility at 2 h in data set [5] worked out at 224 µM (≈ 134 µg/mL). The IC50 at MEK is 0.019 µM; in data set [3], 0.027 µM.
